Our source for the EC50 values is patent US20260274807A1 (University of Health Sciences and Pharmacy in St. Louis, priority 2023, published 2026).

Broadly, the pEC50 is the EC50 on a negative log10 scale, so that one unit is a factor of ten.

pEC50: −log10 of the molar value.

The target in experiment [1] is T1, ERRγ (Homo sapiens, UniProt P62508).
T1 construct: expressed in transfected cells; host or cells: HEK293
T1 sequence (P62508 1-458): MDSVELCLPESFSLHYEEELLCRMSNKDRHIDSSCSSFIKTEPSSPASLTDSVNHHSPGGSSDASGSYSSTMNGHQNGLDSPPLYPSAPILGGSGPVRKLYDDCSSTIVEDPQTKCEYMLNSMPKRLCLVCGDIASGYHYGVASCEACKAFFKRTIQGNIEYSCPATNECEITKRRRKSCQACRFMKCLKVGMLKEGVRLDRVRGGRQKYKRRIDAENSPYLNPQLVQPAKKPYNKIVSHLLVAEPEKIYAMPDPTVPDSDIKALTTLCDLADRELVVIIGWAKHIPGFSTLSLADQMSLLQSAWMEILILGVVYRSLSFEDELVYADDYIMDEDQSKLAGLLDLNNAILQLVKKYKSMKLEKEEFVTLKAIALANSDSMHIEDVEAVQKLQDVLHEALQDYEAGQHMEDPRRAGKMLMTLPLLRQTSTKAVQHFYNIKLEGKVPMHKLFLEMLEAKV
The experiment is described as follows: ERRE luciferase reporter assay in HEK293 cells transfected with pcDNA3.1 ERRγ. It counts as cell-based. As to conditions: HEK293 cells transfected with ERRE reporter construct and pcDNA3.1 ERRγ; compound for 24 hours; luciferase activity. For orientation: Reporter assays use an easily measured gene product as a stand-in for the process of interest.

For experiment [2], the target named is T2, ERRα (Homo sapiens, UniProt P11474).
T2 construct: expressed in transfected cells; host or cells: HEK293
T2 sequence (P11474 1-423): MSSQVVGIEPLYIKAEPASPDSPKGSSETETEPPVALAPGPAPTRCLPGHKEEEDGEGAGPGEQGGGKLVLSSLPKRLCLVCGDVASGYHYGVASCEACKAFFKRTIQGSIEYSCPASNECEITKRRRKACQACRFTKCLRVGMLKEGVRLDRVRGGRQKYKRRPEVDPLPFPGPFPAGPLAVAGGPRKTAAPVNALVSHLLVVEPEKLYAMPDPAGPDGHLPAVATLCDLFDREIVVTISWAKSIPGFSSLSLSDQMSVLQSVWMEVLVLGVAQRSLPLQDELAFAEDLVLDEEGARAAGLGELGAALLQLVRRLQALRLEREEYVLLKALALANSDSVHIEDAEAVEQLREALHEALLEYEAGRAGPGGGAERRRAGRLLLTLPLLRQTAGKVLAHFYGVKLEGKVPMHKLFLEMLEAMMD
The experiment is described as follows: ERRE luciferase reporter assay in HEK293 cells transfected with pcDNA3.1 ERRα. It counts as cell-based. As to conditions: HEK293 cells transfected with ERRE reporter construct and pcDNA3.1 ERRα; compound for 24 hours; luciferase activity.

For the compound `FC(F)(F)c1ccc(-c2nnc(-c3cccc4ncccc34)s2)cc1` [Entry 1062, 2-(quinolin-5-yl)-5-(4-(trifluoromethyl)phenyl)-1,3,4-thiadiazole], the negative-log EC50 (pEC50) in experiment [1] and in experiment [2] was more than 6.00 throughout.

As to `COC(=O)c1cccc(-c2nnc(-c3ccc(C(F)(F)F)cc3)s2)c1` [Entry 1064, methyl 3-(5-(4-(trifluoromethyl)phenyl)-1,3,4-thiadiazol-2-yl)benzoate], the pEC50 in experiment [1] is 5.30 to 6.00; in experiment [2] it was less than 5.30.

Take `COc1ccc(-c2nnc(-c3ccc(C(F)(F)F)cc3)s2)cn1` [Entry 1071, 2-(6-methoxypyridin-3-yl)-5-(4-(trifluoromethyl)phenyl)-1,3,4-thiadiazole]: the pEC50 in experiment [1] was 5.30 to 6.00; in experiment [2] it was more than 6.00.

As to `Cc1cccc(-c2nnc(-c3cccc(C(F)(F)F)c3)s2)n1` [Entry 1073, 2-(6-methylpyridin-2-yl)-5-(3-(trifluoromethyl)phenyl)-1,3,4-thiadiazole], the values for the pEC50 in experiment [1] and in experiment [2] were 5.30 to 6.00 and less than 5.30, respectively.

As to `FC(F)(F)c1cccc(-c2nnc(-c3cccnc3Cl)s2)c1` [Entry 1074, 2-(2-chloropyridin-3-yl)-5-(3-(trifluoromethyl)phenyl)-1,3,4-thiadiazole], the pEC50 in experiment [1] and in experiment [2] was 5.30 to 6.00 throughout.

`Cc1ccc(-c2nnc(-c3scnc3C)s2)cc1` [Entry 1080, 2-(4-methylthiazol-5-yl)-5-(p-tolyl)-1,3,4-thiadiazole]: the pEC50 in experiment [1] and in experiment [2] was more than 6.00 in each case.

With `Cc1ccc(-c2nnc(-c3cncs3)s2)cc1` [Entry 1082, 2-(thiazol-5-yl)-5-(p-tolyl)-1,3,4-thiadiazole], the pEC50 in experiment [1] and in experiment [2] was more than 6.00 in each case.
